System: 817829-284-R-J1-PDC complex spheroid viability
Experiment: Anticancer human tumor 817829-284-R-J1-PDC patient-derived colon adenocarcinoma cell line growth inhibition [POLQ]
Conditions: for IC50: curve of first compound; for viability, T/C: stronger effect = lower value
Protocol: Multicellular complex tumor spheroid response to Polymerase (POL) inhibitors (novobiocin, ART-558, RP6685) in combination with a variety of drugs and investigational agents in selected tumor cell lines
The POL inhibitors (novobiocin, ART-558, and RP6685) were evaluated both individually and in combination with standard of care and investigational anticancer small molecules within a complex spheroid model of solid tumors. . Complex spheroids include a stromal component modeled by human endothelial cells (HUVEC) and fibroblasts modeled by human mesenchymal stem cells (MSCs). The concentration ranges selected for each drug and investigational agent were based upon clinically achievable concentrations if the clinical Cmax of the agent was known.
Compounds. The drugs and investigational agents: novobiocin (NSC847541), ART-558 (NSC835418), RP-6685 (NSC848927), peposertib (NSC802822), ceralasertib (NSC780249), elimusertib (NSC800525), camonsertib (NSC841442), AZD-1390 (NSC803789), olaparib (NSC753686), talazoparib (NSC767125), rucaparib (NSC756644), sotorasib (NSC818433), MRTX-1133 (NSC836407), SN-38 (NSC673596), topotecan (NSC609699), epotoside (NSC141540), doxorubicin (NSC123127), gemcitabine (NSC613327), 5-fluorouracil (NSC19893), paclitaxel (NSC125973), vemurafenib (NSC761431), MSA-2 (NSC828583), SN-011 (NSC837082), adavosertib (NSC754352), prexasertib (NSC758257), carboplatin (NSC241240) and oxaliplatin (NSC266046), were obtained from the National Cancer Institute (NCI) Developmental Therapeutics Program Chemical Repository (21). The FDA-approved anticancer drug set is available from the Developmental Therapeutics Program at https://dtp.cancer.gov/organization/dscb/obtaining/. […] The stock solutions were prepared in dimethyl sulfoxide (DMSO, Sigma-Aldrich, St. Louis, MO, cat. D2650), except for the platinum compounds which were prepared in saline (Quality Biological, Gaithersburg, MD, cat. 114-055-101), at 800-fold the tested concentration and stored at -70 degrees C prior to their use. All drugs and investigational agents were tested over a range starting from a high concentration at or near the clinical Cmax and decreasing in half-log increments. If the clinical Cmax for an agent had not been determined, the highest concentration tested was 10 microM, except for SN-38, which was tested at a high concentration of 1 microM.
Cell Culture. All cells were maintained in an incubator at 37 degrees C and 5% CO2 with 95% humidity. The PDC lines were cultured according to standard operating procedures established by the NCI PDMR (https://pdmr.cancer.gov). Table 3 of the manuscript, lists the cell lines along with the number of the three cell types plated to form the mct-spheroids and media for tumor cell growth. After thawing, all PDC lines, except 997537-175-T-J1-PDC and 415267-285-R-J2-PDC, were cultured in Matrigel-coated flasks prepared with a working solution of 1X Ham's F-12 nutrient mix, without supplementation (Thermo Fisher Scientific, cat. 11765054), 100 U/mL penicillin-streptomycin (Thermo Fisher Scientific, cat. 15140122), and 2.5% Matrigel (Corning Inc., Corning, NY, cat. 354248) for the first three passages. The two PDC lines 997537-175-T-J1-PDC and 415267-285-R-J2-PDC were cultured on uncoated flasks. The 857933-349-R-J2-PDC line was cultured in 6C/Colon 1B media containing advanced DMEM/F-12 (Thermo Fisher Scientific, cat. 12634028), 10 mM HEPES (Thermo Fisher Scientific, cat. 15630080), 1X GlutaMAX supplement (Thermo Fisher Scientific, cat. 35050061), 0.1 mg/mL primocin (InvivoGen, San Diego, CA, cat. ant-pm-2), 10% defined fetal bovine serum, heat inactivated (HyClone Laboratories Inc., Logan, UT, cat. SH30070.03HI), 50% L-WRN conditioned media (ATCC, cat. CRL-3276), 1.25 mM N-Acetyl-L-cysteine (Sigma-Aldrich, cat. A9165), 10 mM nicotinamide (Sigma-Aldrich, cat. N0636), 1X B-27 supplement (Thermo Fisher Scientific, cat. 17504044), 1X N-2 supplement (Thermo Fisher Scientific, cat. […]
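Also: spheroids exposed to compounds for 7 days.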
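For viability, T/C in this document: 100% = DMSO vehicle-treated spheroids.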

In the case of O=C(Nc1ccc(O)c(NS(=O)(=O)c2ccc(F)cc2)c1)c1ccc(-c2ccccc2)cc1 + COC1C(OC(N)=O)C(O)C(Oc2ccc3c(O)c(NC(=O)c4ccc(O)c(CC=C(C)C)c4)c(=O)oc3c2C)OC1(C)C, the IC50 (second compound 0.0316 µM) is reported as 7.82 µM, the IC50 (second compound 0.1 µM) is reported as 7.15 µM and the IC50 (second compound 0.316 µM) is reported as 5.73 µM. The IC50 (second compound 1 µM) was 6.35 µM, the IC50 (second compound 3.16 µM) was 6.53 µM and the IC50 (second compound 10 µM) was 7.4 µM. The viability, T/C (second compound 0.0316 µM, first compound 0.0316 µM) was 114%, the viability, T/C (second compound 0.0316 µM, first compound 0.1 µM) was 68.6% and the viability, T/C (second compound 0.0316 µM, first compound 0.316 µM) was 95.2%. For the same molecule, the viability, T/C (second compound 0.0316 µM, first compound 1 µM) was 72.2%, the viability, T/C (second compound 0.0316 µM, first compound 3.16 µM) was 72.9% and the viability, T/C (second compound 0.0316 µM, first compound 10 µM) was 38.4%. For the same molecule, the viability, T/C (second compound 0.1 µM, first compound 0.0316 µM) was 74.9%, the viability, T/C (second compound 0.1 µM, first compound 0.1 µM) was 108% and the viability, T/C (second compound 0.1 µM, first compound 0.316 µM) was 79.2%. It also gave a viability, T/C (second compound 0.1 µM, first compound 1 µM) of 101%, a viability, T/C (second compound 0.1 µM, first compound 3.16 µM) of 84% and a viability, T/C (second compound 0.1 µM, first compound 10 µM) of 36%. For the same molecule, the viability, T/C (second compound 0.316 µM, first compound 0.0316 µM) was 91.5%, the viability, T/C (second compound 0.316 µM, first compound 0.1 µM) was 106% and the viability, T/C (second compound 0.316 µM, first compound 0.316 µM) was 90.4%. For the same molecule, the viability, T/C (second compound 0.316 µM, first compound 1 µM) was 87.7%, the viability, T/C (second compound 0.316 µM, first compound 3.16 µM) was 68.9% and the viability, T/C (second compound 0.316 µM, first compound 10 µM) was 32.4%. For the same molecule, the viability, T/C (second compound 1 µM, first compound 0.0316 µM) was 100%, the viability, T/C (second compound 1 µM, first compound 0.1 µM) was 84.8% and the viability, T/C (second compound 1 µM, first compound 0.316 µM) was 107%. For the same molecule, the viability, T/C (second compound 1 µM, first compound 1 µM) was 84.7%, the viability, T/C (second compound 1 µM, first compound 3.16 µM) was 66.6% and the viability, T/C (second compound 1 µM, first compound 10 µM) was 39.6%. It also gave a viability, T/C (second compound 3.16 µM, first compound 0.0316 µM) of 91.9%, a viability, T/C (second compound 3.16 µM, first compound 0.1 µM) of 100% and a viability, T/C (second compound 3.16 µM, first compound 0.316 µM) of 103%. The viability, T/C (second compound 3.16 µM, first compound 1 µM) was 103%, the viability, T/C (second compound 3.16 µM, first compound 3.16 µM) was 68.5% and the viability, T/C (second compound 3.16 µM, first compound 10 µM) was 39.1%. For the same molecule, the viability, T/C (second compound 10 µM, first compound 0.0316 µM) was 82.8%, the viability, T/C (second compound 10 µM, first compound 0.1 µM) was 109% and the viability, T/C (second compound 10 µM, first compound 0.316 µM) was 99.6%. The viability, T/C (second compound 10 µM, first compound 1 µM) was 109%, the viability, T/C (second compound 10 µM, first compound 3.16 µM) was 66.7% and the viability, T/C (second compound 10 µM, first compound 10 µM) was 44.1%.
Work on CC(=O)O[C@H]1C(=O)[C@@]2(C)[C@H]([C@H](OC(=O)c3ccccc3)[C@]3(O)C[C@H](OC(=O)[C@H](O)[C@@H](NC(=O)c4ccccc4)c4ccccc4)C(C)=C1C3(C)C)[C@]1(OC(C)=O)CO[C@@H]1C[C@@H]2O + Cc1cccc(N(C)C(=O)C2C(O)CCN2c2nc(C)cc(C(F)(F)F)c2C#N)c1 yielded an IC50 (second compound 0.0316 µM) of under 0.00949 µM, an IC50 (second compound 0.1 µM) of under 0.00949 µM and an IC50 (second compound 0.316 µM) of under 0.00949 µM. The IC50 (second compound 1 µM) was under 0.00949 µM, the IC50 (second compound 3.16 µM) was under 0.00949 µM and the IC50 (second compound 10 µM) was under 0.00949 µM. It also gave a viability, T/C (second compound 0.0316 µM, first compound 0.00949 µM) of 4.71%, a viability, T/C (second compound 0.0316 µM, first compound 0.03 µM) of 4.06% and a viability, T/C (second compound 0.0316 µM, first compound 0.0949 µM) of 3.84%. It also gave a viability, T/C (second compound 0.0316 µM, first compound 0.3 µM) of 3.78%, a viability, T/C (second compound 0.0316 µM, first compound 0.949 µM) of 3.98% and a viability, T/C (second compound 0.0316 µM, first compound 3 µM) of 4.66%. It also gave a viability, T/C (second compound 0.1 µM, first compound 0.00949 µM) of 4.94%, a viability, T/C (second compound 0.1 µM, first compound 0.03 µM) of 4.36% and a viability, T/C (second compound 0.1 µM, first compound 0.0949 µM) of 3.84%. It also gave a viability, T/C (second compound 0.1 µM, first compound 0.3 µM) of 4.37%, a viability, T/C (second compound 0.1 µM, first compound 0.949 µM) of 4.32% and a viability, T/C (second compound 0.1 µM, first compound 3 µM) of 4.51%. For the same molecule, the viability, T/C (second compound 0.316 µM, first compound 0.00949 µM) was 4.66%, the viability, T/C (second compound 0.316 µM, first compound 0.03 µM) was 4.72% and the viability, T/C (second compound 0.316 µM, first compound 0.0949 µM) was 4.39%. The viability, T/C (second compound 0.316 µM, first compound 0.3 µM) was 4.37%, the viability, T/C (second compound 0.316 µM, first compound 0.949 µM) was 4.24% and the viability, T/C (second compound 0.316 µM, first compound 3 µM) was 3.51%. The viability, T/C (second compound 1 µM, first compound 0.00949 µM) was 4.57%, the viability, T/C (second compound 1 µM, first compound 0.03 µM) was 8.02% and the viability, T/C (second compound 1 µM, first compound 0.0949 µM) was 4.15%. It also gave a viability, T/C (second compound 1 µM, first compound 0.3 µM) of 4.37%, a viability, T/C (second compound 1 µM, first compound 0.949 µM) of 4.04% and a viability, T/C (second compound 1 µM, first compound 3 µM) of 4.46%. For the same molecule, the viability, T/C (second compound 3.16 µM, first compound 0.00949 µM) was 4.41%, the viability, T/C (second compound 3.16 µM, first compound 0.03 µM) was 3.99% and the viability, T/C (second compound 3.16 µM, first compound 0.0949 µM) was 4.51%. It also gave a viability, T/C (second compound 3.16 µM, first compound 0.3 µM) of 4.14%, a viability, T/C (second compound 3.16 µM, first compound 0.949 µM) of 3.93% and a viability, T/C (second compound 3.16 µM, first compound 3 µM) of 3.87%. For the same molecule, the viability, T/C (second compound 10 µM, first compound 0.00949 µM) was 4.67%, the viability, T/C (second compound 10 µM, first compound 0.03 µM) was 3.97% and the viability, T/C (second compound 10 µM, first compound 0.0949 µM) was 4.2%. The viability, T/C (second compound 10 µM, first compound 0.3 µM) was 4.14%, the viability, T/C (second compound 10 µM, first compound 0.949 µM) was 4.11% and the viability, T/C (second compound 10 µM, first compound 3 µM) was 4.13%.
